Structures can show the parent of a compound that is named as a salt.
What was measured:
Assay type in all cases: cell-based
EGFR L858R = EGFR L858R (Homo sapiens, UniProt P00533, L858R); experiment: pEGFR Y1068 ELISA assay, NIH3T3/EGFR_L858R cells; details: 3T3 cell line, 2 hrs compound treatment; read-out: pEGFRY1068 ELISA3T3 L858R IC50;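 note: sandwich ELISA of phospho-EGFR Tyr1068 in lysates of stably transfected NIH/3T3 pools after 2 h compound exposure at 37 °C, 11-point threefold dilution series run in duplicate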
EGFR L858R, sequence (P00533 25-1210 L858R): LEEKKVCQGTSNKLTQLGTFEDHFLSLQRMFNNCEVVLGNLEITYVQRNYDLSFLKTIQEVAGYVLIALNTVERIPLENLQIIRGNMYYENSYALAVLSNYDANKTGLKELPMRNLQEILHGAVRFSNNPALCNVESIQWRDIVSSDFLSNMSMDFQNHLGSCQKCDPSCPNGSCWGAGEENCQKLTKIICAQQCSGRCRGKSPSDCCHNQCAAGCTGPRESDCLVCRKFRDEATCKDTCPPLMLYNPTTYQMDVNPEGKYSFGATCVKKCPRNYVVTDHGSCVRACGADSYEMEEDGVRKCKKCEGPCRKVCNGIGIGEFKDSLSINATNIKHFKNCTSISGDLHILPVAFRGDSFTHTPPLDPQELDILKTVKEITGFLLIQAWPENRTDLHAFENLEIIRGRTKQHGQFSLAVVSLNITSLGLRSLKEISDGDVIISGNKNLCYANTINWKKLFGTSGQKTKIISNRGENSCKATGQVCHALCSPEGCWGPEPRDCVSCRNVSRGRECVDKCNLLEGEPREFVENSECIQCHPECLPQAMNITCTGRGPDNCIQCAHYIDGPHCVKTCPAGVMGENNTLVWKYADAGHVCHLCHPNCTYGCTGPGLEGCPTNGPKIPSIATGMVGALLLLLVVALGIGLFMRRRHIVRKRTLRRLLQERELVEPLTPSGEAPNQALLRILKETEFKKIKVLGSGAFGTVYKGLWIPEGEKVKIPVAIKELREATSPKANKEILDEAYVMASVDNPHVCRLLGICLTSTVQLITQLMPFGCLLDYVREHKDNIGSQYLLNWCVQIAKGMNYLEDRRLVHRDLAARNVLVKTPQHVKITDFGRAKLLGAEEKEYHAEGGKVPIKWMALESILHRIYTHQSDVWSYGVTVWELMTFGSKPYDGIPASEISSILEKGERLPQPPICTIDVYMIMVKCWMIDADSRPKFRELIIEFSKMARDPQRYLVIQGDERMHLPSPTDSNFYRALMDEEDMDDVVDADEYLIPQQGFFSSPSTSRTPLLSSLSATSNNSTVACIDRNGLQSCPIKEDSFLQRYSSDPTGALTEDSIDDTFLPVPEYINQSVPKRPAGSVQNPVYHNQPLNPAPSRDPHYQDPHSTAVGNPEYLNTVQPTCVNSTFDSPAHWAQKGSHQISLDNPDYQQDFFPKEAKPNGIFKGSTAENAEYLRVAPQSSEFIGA

NIH3T3/EGFR L858R+T790M = experiment: Cell proliferation assay (CellTiter-Glo), NIH3T3/EGFR L858R+T790M; details: Mus musculus, NIH3T3, 120 h, 3T3 cell line, three to five days of compound treatment, read-out: 3T3 L858R_T790M IC50
[1] = tested on: NIH3T3/EGFR_E746-A750_deletion; experiment: Cell proliferation assay (CellTiter-Glo), NIH3T3/EGFR_E746-A750_deletion; details: Mus musculus, NIH3T3, 120 h, 3T3 cell line, three to five days of compound treatment, read-out: 3T3 del IC50
Description: (§1) Cell proliferation was measured using the CellTiter-Glo® Luminescent Cell Viability Assay. The assay involves the addition of a single reagent (CellTiter-Glo® Reagent) directly to cells cultured in serum-supplemented medium. The assay uses this one-step addition to induce cell lysis and generate a luminescent signal proportional to the amount of ATP present which is directly proportional to the number of metabolically active cells present in culture. The following cell lines were evaluated in this assay: NIH3T3/EGFR_L858R, NIH3T3/EGFR_E746-A750_deletion, NIH3T3/EGFR L858R+T790M, NIH3T3/EGFR_E746-A750_deletion+T790M, PC-9, PC9-DRH, NCI-H1975, and NCI-H3255. NIH/3T3 parental cells, NCI-H1975, and NCI-H3255 were purchased from the American Type Culture Collection (Manassas, Va.), and PC-9 cells were obtained from Japan. All cells were cultured according to recommendations. NIH/3T3 cells were grown in DMEM (Invitrogen, Carlsbad, Calif.) supplemented with 10% newborn calf serum (Invitrogen), and NIH3T3/EGFR mutant cells were grown in complete media with 5 μg/mL puromycin (Invitrogen). PC-9, NCI-H1975, and NCI-H3255 were grown in RPMI (Invitrogen, Carlsbad, Calif.) supplemented with 10% FBS (Sigma, St Louis, Mo.), and PC9-DRH cells were grown in complete media with 2 uM PF-00299804. Plasmids (pLPCX) with various EGFR constructs were made by GenScript (Piscataway, N.J.), and stable pools of NIH/3T3 cells expressing these constructs were made at Pfizer La Jolla. PC9-DRH cells were generated at Pfizer La Jolla by exposing cells to increasing concentrations of PF-00299804. Cells were plated in complete culture media (3000-5000 cells/well, 50 μl/well) on the bottom of white clear-bottom tissue culture treated microtiter plates (#3610, Corning Inc, Corning, N.Y.) and allowed to adhere overnight at 37° C., 5% CO2. The following day, compound dilution plates were prepared in 96 well clear V-bottom 0.5 mL polypropylene block plates (#3956, Corning, Inc). All cell lines were not evaluated for each compound. Each compound evaluated was prepared as a DMSO stock solution (10 mM). Compounds were tested in duplicate on each plate, with an 11-point serial dilution curve (1:3 dilution). Compound treatment (50 μl) was added from the compound dilution plate to the cell plate. The highest compound concentration was 1 or 10 μM (final), with a 0.3% final DMSO (#D-5879, Sigma, St Louis, Mo.) concentration. Plates were then incubated at 37° C., 5% CO2. After three to five days of compound treatment, CellTiter-Glo® Reagent (#G7573, Promega, Madison, Wis.) was prepared in one of two ways. If thawing a frozen aliquot of CellTiter-Glo® Reagent, the aliquot was thawed and equilibrated to room temperature prior to use while keeping it protected from light. Alternatively, new bottles of CellTiter-Glo® Buffer and CellTiter-Glo® Substrate were thawed and equilibrated to room temperature prior to use. CellTiter-Glo® Buffer (100 mL) was transferred into the amber bottle containing CellTiter-Glo® Substrate to reconstitute the lyophilized enzyme/substrate mixture, forming the CellTiter-Glo® Reagent. The reconstituted reagent was mixed by gently inverting the contents to obtain a homogeneous solution, and went into solution easily in less than one minute. Any unused reconstituted CellTiter-Glo® Reagent was immediately aliquoted and frozen at −20° C., protected from light. Cell plates were equilibrated at room temperature for approximately 30 minutes. An equivolume amount of CellTiter-Glo® Reagent (100 μL) was added to each well. Plates were mixed for two minutes on an orbital shaker to induce cell lysis, and then allowed to incubate at room temperature for 10 minutes to stabilize the luminescent signal. Luminescence was recorded using the PerkinElmer EnVision Excite Multilabel Reader used for endpoint reading for Luminescence detection (Waltham, Mass.). Data were analyzed using a four-parameter fit in Microsoft Excel. […]

EGFR E746-A750 deletion = EGFR E746-A750 deletion (Homo sapiens, UniProt P00533, DEL746-750); experiment: pEGFR Y1068 ELISA assay, NIH3T3/EGFR_E746-A750 deletion cells; details: 3T3 Del cells, 2 hrs compound treatment; read-out: ELISA7E 3T3 Del IC50;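 note: sandwich ELISA on cell lysates detecting phospho-EGFR at Tyr1068, compounds run as 11-point threefold dilution series in duplicate, IC50 from inhibition of this phosphorylation signal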
EGFR E746-A750 deletion, sequence (P00533 with tags, fused parts or gaps DEL746-750): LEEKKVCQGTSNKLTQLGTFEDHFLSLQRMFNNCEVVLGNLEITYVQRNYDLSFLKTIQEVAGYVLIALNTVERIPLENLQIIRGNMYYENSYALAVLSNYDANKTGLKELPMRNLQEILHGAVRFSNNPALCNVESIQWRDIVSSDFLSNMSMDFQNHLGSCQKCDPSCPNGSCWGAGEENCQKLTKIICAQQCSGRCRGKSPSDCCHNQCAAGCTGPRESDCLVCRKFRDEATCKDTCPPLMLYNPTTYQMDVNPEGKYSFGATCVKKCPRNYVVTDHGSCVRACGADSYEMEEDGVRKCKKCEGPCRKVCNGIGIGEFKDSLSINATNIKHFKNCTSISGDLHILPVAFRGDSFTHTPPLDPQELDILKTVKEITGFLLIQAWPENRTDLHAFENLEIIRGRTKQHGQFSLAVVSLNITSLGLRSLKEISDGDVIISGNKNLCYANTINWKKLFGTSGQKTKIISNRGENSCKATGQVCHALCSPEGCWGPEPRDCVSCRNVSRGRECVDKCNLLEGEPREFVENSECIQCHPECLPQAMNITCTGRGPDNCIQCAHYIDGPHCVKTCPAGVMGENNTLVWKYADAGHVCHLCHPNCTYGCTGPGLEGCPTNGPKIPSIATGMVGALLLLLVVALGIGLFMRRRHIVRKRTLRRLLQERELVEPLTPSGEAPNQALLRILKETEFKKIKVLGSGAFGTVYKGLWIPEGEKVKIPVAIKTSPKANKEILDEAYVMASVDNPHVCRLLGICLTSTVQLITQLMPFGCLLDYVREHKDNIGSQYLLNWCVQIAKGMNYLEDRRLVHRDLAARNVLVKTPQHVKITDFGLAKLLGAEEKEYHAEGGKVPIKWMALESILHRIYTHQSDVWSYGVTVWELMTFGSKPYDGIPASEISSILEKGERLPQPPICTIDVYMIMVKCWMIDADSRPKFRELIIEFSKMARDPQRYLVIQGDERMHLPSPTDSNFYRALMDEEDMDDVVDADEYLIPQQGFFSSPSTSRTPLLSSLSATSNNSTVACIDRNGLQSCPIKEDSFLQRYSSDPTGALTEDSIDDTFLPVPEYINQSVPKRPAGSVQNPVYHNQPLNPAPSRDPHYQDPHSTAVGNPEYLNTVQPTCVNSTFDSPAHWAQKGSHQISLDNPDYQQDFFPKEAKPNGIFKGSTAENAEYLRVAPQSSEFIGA

EGFR L858R+T790M = EGFR L858R+T790M (Homo sapiens, UniProt P00533, L858R/T790M); experiment: pEGFR Y1068 ELISA assay, NIH3T3/EGFR_L858R+T790M cells; details: 3T3 cell line, 2 hrs compound treatment; read-out: pEGFRY1068 ELISA3T3T790M—L858R IC50;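 note: sandwich ELISA of EGFR phosphorylated at Tyr1068 in lysates of stably transfected NIH/3T3 cells, 11-point threefold dilution series run in duplicate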
EGFR L858R+T790M, sequence (P00533 25-1210 T790M/L858R): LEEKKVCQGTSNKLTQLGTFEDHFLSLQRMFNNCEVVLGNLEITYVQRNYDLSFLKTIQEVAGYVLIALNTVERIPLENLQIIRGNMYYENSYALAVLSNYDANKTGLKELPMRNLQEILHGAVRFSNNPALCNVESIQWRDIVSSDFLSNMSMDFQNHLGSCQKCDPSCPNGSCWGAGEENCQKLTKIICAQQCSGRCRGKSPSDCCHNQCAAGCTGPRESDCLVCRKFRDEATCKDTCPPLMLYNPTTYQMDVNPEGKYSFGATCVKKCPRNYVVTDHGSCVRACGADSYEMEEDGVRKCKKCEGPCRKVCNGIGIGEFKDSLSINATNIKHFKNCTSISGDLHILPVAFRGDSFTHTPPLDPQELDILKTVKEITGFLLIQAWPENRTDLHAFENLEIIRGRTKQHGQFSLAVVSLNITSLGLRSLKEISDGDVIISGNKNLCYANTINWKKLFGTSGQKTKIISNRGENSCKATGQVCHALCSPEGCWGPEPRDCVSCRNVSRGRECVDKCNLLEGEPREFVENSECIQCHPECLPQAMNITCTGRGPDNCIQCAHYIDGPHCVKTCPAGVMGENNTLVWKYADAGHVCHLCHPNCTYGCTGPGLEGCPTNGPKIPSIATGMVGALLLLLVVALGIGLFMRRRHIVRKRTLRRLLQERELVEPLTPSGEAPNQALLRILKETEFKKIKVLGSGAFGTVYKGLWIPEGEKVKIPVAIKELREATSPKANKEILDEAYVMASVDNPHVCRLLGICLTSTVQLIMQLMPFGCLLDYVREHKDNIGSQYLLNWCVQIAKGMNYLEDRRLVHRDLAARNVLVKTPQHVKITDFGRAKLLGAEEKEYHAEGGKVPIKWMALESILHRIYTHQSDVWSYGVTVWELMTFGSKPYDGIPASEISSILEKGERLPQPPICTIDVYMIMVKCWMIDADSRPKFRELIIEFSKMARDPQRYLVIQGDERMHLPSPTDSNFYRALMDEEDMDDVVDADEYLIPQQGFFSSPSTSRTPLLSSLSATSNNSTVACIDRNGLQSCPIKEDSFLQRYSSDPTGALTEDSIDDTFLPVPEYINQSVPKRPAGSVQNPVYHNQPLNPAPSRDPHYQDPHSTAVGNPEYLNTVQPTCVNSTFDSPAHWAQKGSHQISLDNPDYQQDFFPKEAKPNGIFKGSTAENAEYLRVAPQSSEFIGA

[2] = target: T1, EGFR wildtype, endogenous (Homo sapiens, UniProt P00533); experiment: pEGFR Y1068 ELISA assay, A549 cells; details: full serum media, stimulated 10 min with EGF (40 ng/mL), read-out: pEGFRY1068 ELISAA549 IC50;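 note: sandwich ELISA of phospho-EGFR Tyr1068 in cell lysates, cells exposed to compound for 2 h before EGF stimulation, 11-point threefold dilution series run in duplicate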
T1 construct: A549 (EGFR wildtype, endogenous); host or cells: A549
T1 sequence (P00533 25-1210): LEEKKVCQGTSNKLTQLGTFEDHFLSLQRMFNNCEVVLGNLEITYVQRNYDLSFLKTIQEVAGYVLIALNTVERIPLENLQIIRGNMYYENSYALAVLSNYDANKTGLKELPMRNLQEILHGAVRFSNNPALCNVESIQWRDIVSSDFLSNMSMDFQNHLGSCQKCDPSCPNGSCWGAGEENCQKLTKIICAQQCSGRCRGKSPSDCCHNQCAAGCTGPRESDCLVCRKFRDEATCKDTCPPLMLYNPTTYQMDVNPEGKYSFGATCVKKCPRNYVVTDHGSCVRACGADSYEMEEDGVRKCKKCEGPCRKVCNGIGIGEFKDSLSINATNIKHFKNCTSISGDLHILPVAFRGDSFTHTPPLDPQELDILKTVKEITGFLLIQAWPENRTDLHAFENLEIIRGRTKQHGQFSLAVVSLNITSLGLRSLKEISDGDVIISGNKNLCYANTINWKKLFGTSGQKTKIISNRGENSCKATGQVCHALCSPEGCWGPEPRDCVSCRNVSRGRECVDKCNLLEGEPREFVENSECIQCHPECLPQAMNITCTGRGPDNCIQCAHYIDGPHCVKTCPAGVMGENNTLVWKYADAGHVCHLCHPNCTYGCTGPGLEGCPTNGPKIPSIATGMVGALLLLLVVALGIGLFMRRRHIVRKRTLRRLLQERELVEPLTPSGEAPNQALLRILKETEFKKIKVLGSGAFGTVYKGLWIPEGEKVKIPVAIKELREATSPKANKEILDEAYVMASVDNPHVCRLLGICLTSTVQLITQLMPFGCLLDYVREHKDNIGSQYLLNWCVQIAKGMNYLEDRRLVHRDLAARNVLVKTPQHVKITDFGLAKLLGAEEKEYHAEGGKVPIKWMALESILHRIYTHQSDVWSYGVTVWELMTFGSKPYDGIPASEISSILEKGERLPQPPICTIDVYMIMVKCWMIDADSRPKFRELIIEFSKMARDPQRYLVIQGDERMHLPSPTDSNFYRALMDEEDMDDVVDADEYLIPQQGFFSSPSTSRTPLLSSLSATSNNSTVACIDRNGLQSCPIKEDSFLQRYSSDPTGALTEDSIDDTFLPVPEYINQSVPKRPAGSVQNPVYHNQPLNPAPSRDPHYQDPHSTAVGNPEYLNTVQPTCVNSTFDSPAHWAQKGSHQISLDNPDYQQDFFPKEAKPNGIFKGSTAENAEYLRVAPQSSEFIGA

NIH3T3/EGFR_L858R = experiment: Cell proliferation assay (CellTiter-Glo), NIH3T3/EGFR_L858R; details: Mus musculus, NIH3T3, 120 h, 3T3 cell line, three to five days of compound treatment, read-out: 3T3 L858R IC50
Description: as §1

[3] = tested on: NIH3T3/EGFR_E746-A750_deletion+T790M; experiment: Cell proliferation assay (CellTiter-Glo), NIH3T3/EGFR_E746-A750_deletion+T790M; details: Mus musculus, NIH3T3, 120 h, 3T3 cell line, three to five days of compound treatment, read-out: 3T3 del_T790M IC50
Description: as §1

| SMILES | IC50 (EGFR L858R) | IC50 (EGFR E746-A750 deletion) | IC50 (EGFR L858R+T790M) | IC50 [2] | IC50 (NIH3T3/EGFR L858R+T790M) | IC50 [1] | IC50 (NIH3T3/EGFR_L858R) | IC50 [3] |
| --- | --- | --- | --- | --- | --- | --- | --- | --- |
| C=CC(=O)N1C[C@H](COc2nc(Nc3cnn(C)c3)nc3[nH]cc(Cl)c23)[C@@H]([C@H](C)O)C1 (single isomer, unassigned) [Example 10] | 1.81 µM | 1.02 µM | 0.08 µM | > 10 µM | > 1 µM | 0.1 to 1 µM | > 1 µM | 0.01 to 0.1 µM |
| C=CC(=O)N1C[C@H](COc2nc(Nc3cnn(C)c3)nc3[nH]cc(Cl)c23)[C@@H](OC)C1 [Example 9, 1-{(3R,4R)-3-[5-chloro-2-(1-methyl-1H-pyrazol-4-ylamino)-7H-pyrrolo[2,3-d]pyrimidin-4-yloxymethyl]-4-methoxy-pyrrolidin-1-yl}propenone trifluoroacetate] |  |  |  |  | 0.1 to 1 µM | 0.01 to 0.1 µM | 0.1 to 1 µM | < 0.01 µM |
| C=CC(=O)Nc1cccc(Oc2nc(Nc3ccn(C)n3)nc3[nH]cc(Cl)c23)c1 [Example 21] | 0.202 µM | 0.033 µM | 0.013 µM | 7.85 µM | 0.01 to 0.1 µM | 0.01 to 0.1 µM | > 1 µM | < 0.01 µM |
| C=CC(=O)Nc1cccc(Oc2nc(Nc3cn(C)nc3C(F)(F)F)nc3[nH]ccc23)c1 [Example 32] | 0.047 µM | 0.098 µM | 0.009 µM | 1.34 µM | 0.01 to 0.1 µM | 0.01 to 0.1 µM | > 1 µM | < 0.01 µM |
| C=CC(=O)Nc1cccc(Oc2nc(Nc3cnn(C)c3)nc3[nH]ccc23)c1 [Example 35] |  |  |  |  | < 0.01 µM | < 0.01 µM | 0.1 to 1 µM | < 0.01 µM |
| C=CC(=O)Nc1cccc(Oc2nc(Nc3cnn(C)n3)nc3[nH]ccc23)c1 [Example 40] | 0.099 µM | 0.044 µM | 0.02 µM | > 6.38 µM | 0.01 to 0.1 µM | 0.01 to 0.1 µM | > 1 µM | < 0.01 µM |
| C=CC(=O)N1CC[C@@H](COc2nc(Nc3cnn(C)c3)nc3[nH]cc(Cl)c23)C1 [Example 64] |  |  |  |  | 0.01 to 0.1 µM | < 0.01 µM | 0.01 to 0.1 µM | < 0.01 µM |
| C=CC(=O)N1CC[C@@H](Oc2nc(Nc3cnn(C)c3)nc3[nH]cc(Cl)c23)C1 [Example 65] | 0.51 µM | 1.17 µM | 0.044 µM | > 10 µM | 0.1 to 1 µM | 0.1 to 1 µM | 0.1 to 1 µM | 0.01 to 0.1 µM |
| C=CC(=O)N1C[C@H](COc2nc(Nc3cnn([C@@H]4CCOC4)c3)nc3[nH]cc(Cl)c23)[C@@H](OC)C1 [Example 72] |  |  |  |  | 0.1 to 1 µM | 0.1 to 1 µM | 0.1 to 1 µM | 0.01 to 0.1 µM |
| C=CC(=O)N1C[C@H](COC)[C@@H](COc2nc(Nc3cnn(C)c3)nc3[nH]cc(Cl)c23)C1 [Example 74] |  |  |  |  | 0.1 to 1 µM | 0.01 to 0.1 µM | 0.1 to 1 µM | 0.01 to 0.1 µM |

Continued, in another order:

| IC50 (EGFR L858R) | IC50 (EGFR E746-A750 deletion) | IC50 (EGFR L858R+T790M) | IC50 [2] | SMILES | IC50 (NIH3T3/EGFR L858R+T790M) | IC50 [1] | IC50 (NIH3T3/EGFR_L858R) | IC50 [3] |
| --- | --- | --- | --- | --- | --- | --- | --- | --- |
| 0.141 µM | 0.029 µM | 0.011 µM | 2.92 µM | C=CC(=O)Nc1cccc(Oc2nc(Nc3cnn(CCN(C)C)c3)nc3[nH]ccc23)c1 [Example 2, N-(3-{[2-({1-[2-(dimethylamino)ethyl]-1H-pyrazol-4-yl}amino)-7H-pyrrolo[2,3-d]pyrimidin-4-yl]oxy}phenyl)prop-2-enamide] | < 0.01 µM | < 0.01 µM | 0.1 to 1 µM | < 0.01 µM |
| 0.081 µM | 0.027 µM | 0.011 µM | > 10 µM | C=CC(=O)Nc1cccc(Oc2nc(Nc3ccn(CC)n3)nc3[nH]ccc23)c1 [Example 22] | 0.01 to 0.1 µM | < 0.01 µM | 0.1 to 1 µM | < 0.01 µM |
| 0.105 µM |  | 0.011 µM | 0.947 µM | C=CC(=O)Nc1cccc(Oc2nc(Nc3cnn(C(C)C)c3)nc3[nH]ccc23)c1 [Example 31] | 0.01 to 0.1 µM | 0.01 to 0.1 µM | > 1 µM | 0.01 to 0.1 µM |
| 0.17 µM |  | 0.014 µM | 4.03 µM | C=CC(=O)Nc1cccc(Oc2nc(Nc3cnn(C4CCN(C)C4)c3)nc3[nH]ccc23)c1 (stereo not drawn) [Example 34] | 0.01 to 0.1 µM | < 0.01 µM | 0.1 to 1 µM | < 0.01 µM |
| 0.418 µM | 0.045 µM | 0.02 µM | > 10 µM | C=CC(=O)Nc1cccc(Oc2nc(Nc3ccn(C)n3)nc3[nH]cc(C#N)c23)c1 [Example 36] | 0.1 to 1 µM | 0.01 to 0.1 µM | > 1 µM | 0.01 to 0.1 µM |
| 2.01 µM | 1.22 µM | 0.067 µM | > 10 µM | C=CC(=O)N[C@H]1C[C@H](Oc2nc(Nc3cnn(C)c3)nc3[nH]cc(Cl)c23)C1 [Example 63] | > 1 µM | > 1 µM | > 1 µM | 0.1 to 1 µM |
| 0.208 µM | 1.06 µM | 0.042 µM | > 10 µM | C=CC(=O)N1C[C@H](COc2nc(Nc3cn(C)nc3CC)nc3[nH]cc(F)c23)[C@@H](OC)C1 [Example 68] | 0.1 to 1 µM | 0.1 to 1 µM | 0.1 to 1 µM | 0.01 to 0.1 µM |
| 3.55 µM |  | 0.069 µM | > 10 µM | C=CC(=O)N(C)[C@H]1C[C@H](Oc2nc(Nc3cnn(CC(O)CN(C)C)c3)nc3[nH]cc(Cl)c23)C1 (stereo partly drawn) [Example 75] | 0.1 to 1 µM | 0.1 to 1 µM | > 1 µM | 0.01 to 0.1 µM |
| 0.855 µM |  | 0.026 µM | > 10 µM | C=CC(=O)N1CCOC2(CCN(c3nc(Nc4cnn(C)c4)nc4[nH]cc(Cl)c34)C2)C1 (stereo not drawn) [Example 76] | 0.1 to 1 µM | 0.1 to 1 µM | > 1 µM | 0.1 to 1 µM |
| 0.49 µM |  | 0.037 µM | > 10 µM | C=CC(=O)N1CC(Oc2nc(Nc3cnn(C)c3)nc3[nH]cc(Cl)c23)C1 [Example 105] | 0.1 to 1 µM | 0.1 to 1 µM | 0.1 to 1 µM | 0.1 to 1 µM |

Reference: US9040547B2, “Pyrrolopyrimidine and purine derivatives” (PFIZER INC., priority 2011, dated 2015)
